Test results from ChEMBL document CHEMBL3886160, “1,2,4-triazine-6-carboxamide derivative” (2015).

Biological target: Tyrosine-protein kinase SYK (Homo sapiens, UniProt P43405)
Experiment: Syk Kinase Inhibition Assay: The in vitro inhibitory activity of the compound of the present invention against Syk kinase activity was assayed under the following conditions: the purified human Syk protein used in the test were purchased from Carna Biosciences, Inc. For the inhibitory activity assay on the compound, the compound of the present invention was first serially diluted with dimethyl …
Description: Syk Kinase Inhibition Assay: The in vitro inhibitory activity of the compound of the present invention against Syk kinase activity was assayed under the following conditions: the purified human Syk protein used in the test were purchased from Carna Biosciences, Inc. For the inhibitory activity assay on the compound, the compound of the present invention was first serially diluted with dimethyl sulfoxide (DMSO). […] The kinase reaction was stopped by the addition thereto of EDTA.

| IC50 | Structure (SMILES) |
| --- | --- |
| 0.37 nM | Cc1cc(Nc2nc(N[C@@H]3CCOC[C@@H]3N)nnc2C(N)=O)cc2ccsc12 |
| 0.38 nM | NC(=O)c1nnc(N[C@@H]2CCCC[C@@H]2N)nc1Nc1nc(-c2ccccc2)cs1 |

| Structure (SMILES) | IC50 |
| --- | --- |
| NC(=O)c1nnc(N[C@@H]2CCOC[C@@H]2N)nc1Nc1csc2ccccc12 | 0.89 nM |
